Reference: patent US9526680B2, “Method for searching for malodor control agent, malodor control agent, and malodor control method” (Kao Corporation, priority 2010, dated 2016)

Columns and labels:
Format in all cases: in vivo
[1] = Sensory evaluation test of isovaleric acid odor inhibition; conditions: test substance diluted 1000 times with propylene glycol, 5 panelists (FIG. 7)
Experimental: (§1) Cotton balls were introduced into a glass bottle (Hakuyo Glass Co., Ltd. No. 11, capacity 110 ml), and hexanoic acid diluted 100 times with propylene glycol, nonanoic acid diluted 10 times with propylene glycol, or isovaleric acid diluted 1000 times with propylene glycol, as a malodor, and a test substance were added dropwise in an amount of […] to the cotton balls. The glass bottle was left to stand overnight at room temperature, and the odor molecules were sufficiently volatilized in the glass bottle. A sensory evaluation test was carried out by a panel of three panelists (5 panelists for isovaleric acid), and while the intensity of odor in the case of adding dropwise the malodor alone was rated as 5, the intensity of the malodor in the case of incorporating a test substance was evaluated on the basis of a system of 20 grades from 0 point to 10 points (0.5 points per grade). […]

[2] = Sensory evaluation test of nonanoic acid odor inhibition; conditions: test substance diluted 10 times with propylene glycol (FIG. 6)
Experimental: as §1

[3] = Sensory evaluation test of cresol odor inhibition (specificity); conditions: cresol and test substance each diluted 100 times with propylene glycol (FIG. 8)
Experimental: Cotton balls were introduced into a glass bottle (Hakuyo Glass Co., Ltd. No. 11, capacity 110 ml), and hexanoic acid diluted 100 times with propylene glycol, nonanoic acid diluted 10 times with propylene glycol, or isovaleric acid diluted 1000 times with propylene glycol, as a malodor, and a test substance were added dropwise in an amount of […] to the cotton balls. The glass bottle was left to stand overnight at room temperature, and the odor molecules were sufficiently volatilized in the glass bottle. A sensory evaluation test was carried out by a panel of three panelists (5 panelists for isovaleric acid), and while the intensity of odor in the case of adding dropwise the malodor alone was rated as 5, the intensity of the malodor in the case of incorporating a test substance was evaluated on the basis of a system of 20 grades from 0 point to 10 points (0.5 points per grade).
In the experiment, cresol diluted 100 times with propylene glycol was used as the malodor, and florhydral diluted 100 times with propylene glycol was used as the test substance.

In the case of `CC(C)c1cccc(C(C)CC=O)c1` (stereo not drawn) [Florhydral, 3-(3-isopropylphenyl)-butyraldehyde], the “Inhibition of isovaleric acid odor (in words)” value [1] is reported as “the odors were also inhibited”, the “Inhibition of nonanoic acid odor (in words)” value [2] is reported as “the odors were also inhibited” and the “Inhibition of cresol odor (in words)” value [3] is reported as “not inhibited”.
